Data set [1] concerns French beans (Phaseolus vulgaris). Description: Soil application to French beans, effects on flowering (BBCH) and plant physiology (NDVI, NIR). It is filed as in vivo. The arrangement: NIR (Near infrared band reflectance): unit not given here. The note with it: 0.01 mg AI per plant drench, mean of 4 reps; for BBCH (plant growth stage): 15DAA, check 57; for NDVI (Normalized difference vegetative index) / NIR (Near infrared band reflectance): 25DAA; for NDVI (Normalized difference vegetative index): check 0.431; for NIR (Near infrared band reflectance): check 4.32. The procedure: Four two week old French bean plants were treated with 0.01 mg Al per plant as soil application (drench). Plants were kept under glasshouse conditions at 22° C. with a photo-period of 14 h. 15DAA the development stage of blossoms was assessed. 25DAA the photosynthetic capacity of plants (NDVI, NIR) was measured.

By melting point is commonly meant the temperature of the solid-liquid transition. Regarding `CCOC(=O)OC1=C(c2cc(C)ccc2C)C(=O)N(C)C12CCN(OC)CC2` [Compound P1.1], the melting point lay within 96 to 110 °C.
Consider `CCOC(=O)OC1=C(c2c(C)cc(C)cc2C)C(=O)N(CC)C12CCN(OC)CC2` [Compound P1.8], for which the melting point was in the range of 101 to 103 °C.
As to `CCOC(=O)OC1=C(c2cc(C)c(C)cc2Br)C(=O)N(C)C12CCN(OC)CC2` [Compound P1.20], the melting point was in the range of 158 to 159 °C.
Same read-out and setting: the same measure for `CCOC(=O)OC1=C(c2cc(C)c(C)cc2Cl)C(=O)N(C)C12CCN(OC)CC2` [Compound P1.22]: 149 to 150 °C.
Same read-out and setting: as for `COCON1C(=O)C(c2cc(C)ccc2C)=C(OC(=O)CC(C)(C)C)C12CCN(OC)CC2` [Compound P1ii.5], the figure is 93 to 95 °C.
Still for that read-out and setting: as for `COCON1C(=O)C(c2cc(C)ccc2C)=C(OC)C12CCN(OC)CC2` [Compound P1ii.31], the figure is 91 to 93 °C; as for `CCOC(=O)OC1=C(c2c(F)ccc(C)c2Cl)C(=O)N(OCOC)C12CCN(OC)CC2` [Compound P1ii.61], 116 to 119 °C; as for `CCOC(=O)OC1=C(c2c(C)cc(Cl)cc2C)C(=O)N(OC)C12CCN(OC)CC2` [Compound P1ii.114], 122 to 125 °C.
Regarding `CON1CCC2(CC1)C(O)=C(c1cc(C)ccc1C)C(=O)N2C` [Compound P2.1], the melting point lay in the range of 121 to 123 °C.
Same read-out and setting: as for `CON1CCC2(CC1)C(O)=C(c1c(C)cc(C)cc1C)C(=O)N2CC1CC1` [Compound P2.8, 1-Cyclopropylmethyl-4-hydroxy-8-methoxy-3-(2,4,6-trimethyl-phenyl)-1,8-diaza-spiro[4.5]dec-3-en-2-one], the figure is 223 to 225 °C.
Same read-out and setting: as for `CCN1C(=O)C(c2c(C)cc(C)cc2C)=C(O)C12CCN(OC)CC2` [Compound P2.11], the figure is 218 to 221 °C.
`CON1CCC2(CC1)C(O)=C(c1cc(C)c(C)cc1Br)C(=O)N2C` [Compound P2.23]: the melting point lay in the range of 191 to 193 °C.
`CON1CCC2(CC1)C(O)=C(c1cc(C)c(C)cc1C)C(=O)N2C` [Compound P2.25] yielded a melting point of 183 to 186 °C.
The same measure, in the same setting: as for `CON1CCC2(CC1)C(O)=C(c1cc(C)c(C)cc1Cl)C(=O)N2C` [Compound P2.26, 3-(2-Chloro-4,5-dimethyl-phenyl)-4-hydroxy-8-methoxy-1-methyl-1,8-diaza-spiro[4.5]dec-3-en-2-one], the figure is 191 to 192 °C; as for `CON1CCC2(CC1)C(O)=C(c1cc(Br)c(C)cc1C)C(=O)N2C` [Compound P2.28], 182 to 183 °C; as for `COCON1C(=O)C(c2c(C)cc(-c3ccc(Cl)cc3)cc2C)=C(O)C12CCN(OC)CC2` [Compound P2ii.15, 3-(4′-Chloro-3,5-dimethyl-biphenyl-4-yl)-4-hydroxy-8-methoxy-1-methoxymethoxy-1,8-diaza-spiro[4.5]dec-3-en-2-one], 128 °C (dec.).
The same measure, in the same setting: as for `CON1CCC2(CC1)C(O)=C(c1c(C)cc(C)cc1C)C(=O)N2OCCOC1CCCCO1` (stereo not drawn) [Compound P2ii.22], the figure is 135 to 137 °C.
Still for that read-out and setting: as for `COCON1C(=O)C(c2c(F)ccc(C)c2Cl)=C(O)C12CCN(OC)CC2` [Compound P2ii.60], the figure is 155 to 158 °C.
Turning to `COCCON1C(=O)C(c2cc(Br)c(C)cc2C)=C(O)C12CCN(OC)CC2` [Compound P2ii.73], the melting point lay within 63 to 64 °C.
The molecule `CON1CCC2(CC1)C(O)=C(c1cc(Br)c(C)cc1C)C(=O)N2OC` [Compound P2ii.75] returned a melting point of 86 to 87 °C.
The molecule `COCCON1C(=O)C(c2cc(Br)c(F)cc2C)=C(O)C12CCN(OC)CC2` [Compound P2ii.87] returned a melting point of 71 to 74 °C.
Still for that read-out and setting: the same measure for `COCON1C(=O)C(c2cc(Br)c(F)cc2C)=C(O)C12CCN(OC)CC2` [Compound P2ii.89]: 64 to 67 °C.
Still for that read-out and setting: the same measure for `CON1CCC2(CC1)C(O)=C(c1c(C)cc(C)cc1C)C(=O)N2OCC1CCCCC1` [Compound P2ii.96]: 169 to 172 °C; for `COCCON1C(=O)C(c2c(C)cc(Cl)cc2C)=C(O)C12CCN(OC)CC2` [Compound P2ii.101]: 161 to 164 °C; for `CON1CCC2(CC1)C(O)=C(c1c(C)cc(Cl)cc1C)C(=O)N2OC` [Compound P2ii.102]: 88 to 92 °C.
On the same count and under the same terms, the same measure for `COCON1C(=O)C(c2c(C)cc(Cl)cc2C)=C(O)C12CCN(OC)CC2` [Compound P2ii.104]: 176 to 178 °C; for `CON1CCC2(CC1)C(O)=C(c1c(C)cc(Cl)cc1C)C(=O)N2OC1CCCO1` (stereo not drawn) [Compound P2ii.105]: 137 to 139 °C.
As to `CON1CCC2(CC1)C(O)=C(c1c(C)cc(C)cc1C)C(=O)N2C` [Compound T1.070], in data set [1], the “BBCH (plant growth stage)” value is given as 59, the “NDVI (Normalized difference vegetative index)” value is listed as 0.418 and the “NIR (Near infrared band reflectance)” value turned out to be 3.81.
For `CON1CCC2(CC1)NC(=O)C(c1cc(C)ccc1C)=C2O` [Compound T1iii.030] the same measures were 58, 0.486 and 4.98.
`CON1CCC2(CC1)NC(=O)C(c1c(C)cc(C)cc1C)=C2O` [Compound T1iii.70]: in data set [1], the “BBCH (plant growth stage)” value stood at 58, the “NDVI (Normalized difference vegetative index)” value came out at 0.443 and the “NIR (Near infrared band reflectance)” value is listed as 4.92.
For the molecule `COCON1C(=O)C(c2cc(C)ccc2C)=C(O)C12CCN(OC)CC2` [Compound T20ii.030], in data set [1], the “BBCH (plant growth stage)” value was 58, the “NDVI (Normalized difference vegetative index)” value was 0.427 and the “NIR (Near infrared band reflectance)” value came to 4.07.
As for `COCON1C(=O)C(c2c(C)cc(C)cc2C)=C(O)C12CCN(OC)CC2` [Compound T20ii.070], in data set [1], the “BBCH (plant growth stage)” value was found to be 58, the “NDVI (Normalized difference vegetative index)” value came to 0.518 and the “NIR (Near infrared band reflectance)” value stood at 4.59.
With `COCCON1C(=O)C(c2c(C)cc(C)cc2C)=C(O)C12CCN(OC)CC2` [Compound T22ii.070], in data set [1], the “BBCH (plant growth stage)” value came to 59, the “NDVI (Normalized difference vegetative index)” value amounted to 0.471 and the “NIR (Near infrared band reflectance)” value was 4.18.
In the same order, the values of `CCOC(=O)OC1=C(c2cc(C)ccc2C)C(=O)N(OCOC)C12CCN(OC)CC2` [T20ii.030, wherein G is CO2Et] are 59, 0.522 and 4.45.
In the same order, the values of `CCOC(=O)OC1=C(c2c(C)cc(C)cc2C)C(=O)N(OCOC)C12CCN(OC)CC2` [T20ii.070, wherein G is CO2Et] are 59, 0.539 and 4.65.

These data come from US20140018242A1, “METHOD OF CROP ENHANCEMENT” (SYNGENTA PARTICIPATIONS AG, priority 2010, published 2014).
